# Measurements taken from patent US20250170130A1, “MODULATORS OF MYC FAMILY PROTO-ONCOGENE PROTEIN” (Nalo Therapeutics, priority 2022, published 2025).
# Where two headings read alike, the source gives them in different places.
# How the values were obtained:
# MycN = molecular target: T1, MycN (Homo sapiens, UniProt P04198); assay: Degradation of MycN protein in SK-N-BE(2) cells, JESS/Western blot of lysates; type: cell-based; settings: SKNBE2, 24 h; for Dmax at 0.5 µM: read-out: % Degradation of MycN (SKNBE2) 24 h, 0.5 μM; for Dmax at 1 µM: read-out: % Degradation of MycN (SKNBE2) 24 h, 1 μM; for Dmax at 3 µM: read-out: % Degradation of MycN (SKNBE2) 24 h, 3 μM; for Dmax at 6 µM: read-out: % Degradation of MycN (SKNBE2) 24 h, 6 μM
# T1 construct: endogenous in cells; host or cells: SK-N-BE(2)
# T1 sequence (P04198 1-464): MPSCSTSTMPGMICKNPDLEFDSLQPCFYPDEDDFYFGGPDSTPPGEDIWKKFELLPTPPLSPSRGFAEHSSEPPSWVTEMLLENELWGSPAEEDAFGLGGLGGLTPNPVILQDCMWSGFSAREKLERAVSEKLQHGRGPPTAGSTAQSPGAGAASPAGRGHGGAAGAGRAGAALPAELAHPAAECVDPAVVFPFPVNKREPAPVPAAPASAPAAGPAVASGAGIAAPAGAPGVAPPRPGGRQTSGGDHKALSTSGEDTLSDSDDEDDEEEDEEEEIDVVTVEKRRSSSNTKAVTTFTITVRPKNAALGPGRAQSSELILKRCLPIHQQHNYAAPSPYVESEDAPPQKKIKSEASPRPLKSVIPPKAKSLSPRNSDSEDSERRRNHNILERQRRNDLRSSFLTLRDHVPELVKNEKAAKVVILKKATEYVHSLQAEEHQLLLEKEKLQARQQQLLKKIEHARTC
# Outline: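 SK-N-BE(2) adherent cells (5E5 per well of a 6 well dish) were grown 24 hrs, then exposed to compounds diluted 1 in 20 in media, with DMSO controls, for 24 hrs. Cells were scraped, pelleted, PBS washed and lysed in RIPA buffer cocktail; after BCA protein quantitation, n-myc was detected by chemiluminescence on JESS/Western blot with tubulin and GAPDH loading controls read in the near infra red channel.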
# MycC = molecular target: T2, MycC (Homo sapiens, UniProt P01106); assay: Degradation of MycC protein in L363 cells, JESS/Western blot of lysates; type: cell-based; settings: L-363, 24 h; for Dmax at 0.5 µM: read-out: % Degradation of MycC (L-363) 24 h, 0.5 μM; for Dmax at 1 µM: read-out: % Degradation of MycC (L-363) 24 h, 1 μM; for Dmax at 3 µM: read-out: % Degradation of MycC (L-363) 24 h, 3 μM; for Dmax at 6 µM: read-out: % Degradation of MycC (L-363) 24 h, 6 μM
# T2 construct: endogenous in cells; host or cells: L363
# T2 sequence (P01106 whole entry): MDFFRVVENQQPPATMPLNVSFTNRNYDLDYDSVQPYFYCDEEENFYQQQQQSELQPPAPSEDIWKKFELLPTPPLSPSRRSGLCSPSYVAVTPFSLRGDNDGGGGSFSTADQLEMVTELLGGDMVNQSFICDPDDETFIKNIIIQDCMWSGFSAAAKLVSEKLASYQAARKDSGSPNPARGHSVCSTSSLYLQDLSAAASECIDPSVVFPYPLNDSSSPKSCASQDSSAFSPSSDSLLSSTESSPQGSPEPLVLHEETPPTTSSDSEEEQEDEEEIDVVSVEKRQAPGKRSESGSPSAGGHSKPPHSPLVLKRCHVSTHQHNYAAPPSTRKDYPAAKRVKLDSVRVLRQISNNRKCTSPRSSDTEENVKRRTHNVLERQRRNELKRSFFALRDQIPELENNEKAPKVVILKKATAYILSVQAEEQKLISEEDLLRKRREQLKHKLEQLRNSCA
# Outline: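 L363 suspension cells were seeded at 1E6 cells per well and exposed to compound (stock 10 mM in DMSO) for 24 hrs. Cells were collected, spun down, rinsed with PBS, lysed in RIPA buffer cocktail on ice, clarified and kept at −80 degrees. Lysate protein was quantified by BCA, and c-myc was measured on JESS by chemiluminescence with tubulin and GAPDH loading controls in the NIR channel.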
"Dmax at 0.5 µM (MycN; SKNBE2 cells, 24 h, 0.5 μM)","Dmax at 1 µM (MycN; SKNBE2 cells, 24 h, 1 μM)","Dmax at 3 µM (MycN; SKNBE2 cells, 24 h, 3 μM)","Dmax at 6 µM (MycN; SKNBE2 cells, 24 h, 6 μM)","Dmax at 0.5 µM (MycC; L-363 cells, 24 h, 0.5 μM)","Dmax at 3 µM (MycC; L-363 cells, 24 h, 3 μM)","Dmax at 6 µM (MycC; L-363 cells, 24 h, 6 μM)",Structure (SMILES),Dmax at 0.5 µM (MycN),Dmax at 1 µM (MycN),Dmax at 3 µM (MycN),Dmax at 6 µM (MycN),Dmax at 0.5 µM (MycC),Dmax at 1 µM (MycC),Dmax at 3 µM (MycC),Dmax at 6 µM (MycC),"Dmax at 1 µM (MycC; L-363 cells, 24 h, 1 μM)"
–,–,–,–,–,–,–,"COCCNCC12CC(C1)N(c1nccc(Nc3cc(C4CCCC4)[nH]n3)n1)C2 [Compound 67, N-(5-Cyclopentyl-1H-pyrazol-3-yl)-2-[4-[(2-methoxyethylamino)methyl]-2-azabicyclo[2.1.1]hexan-2-yl]pyrimidin-4-amine]",< 20%,50 to 79%,80 to 100%,80 to 100%,< 20%,< 20%,80 to 100%,80 to 100%,–
20 to 49%,50 to 79%,50 to 79%,80 to 100%,< 20%,80 to 100%,80 to 100%,"NC[C@@H]1CCN(c2nccc(Nc3cc(C4CCCC4)[nH]n3)n2)C1 [Compound 110, 2-[(3S)-3-(Aminomethyl)pyrrolidin-1-yl]-N-(5-cyclopentyl-1H-pyrazol-3-yl)pyrimidin-4-amine]",–,–,–,–,–,–,–,–,–
< 20%,80 to 100%,80 to 100%,80 to 100%,–,< 20%,–,"NC[C@H]1CCN(c2nccc(Nc3cc(C4CC4)[nH]n3)n2)C1 [Compound 11, (R)-2-(3-(Aminomethyl)pyrrolidin-1-yl)-N-(5-cyclopropyl-1H-pyrazol-3-yl)pyrimidin-4-amine]",–,–,–,–,–,–,–,–,–
–,–,50 to 79%,80 to 100%,–,–,50 to 79%,"CNCC12CC(C1)N(c1nccc(Nc3cc(C4CCCC4)ncn3)n1)C2 [Compound 112, N-(6-Cyclopentylpyrimidin-4-yl)-2-[4-(methylaminomethyl)-2-azabicyclo[2.1.1]hexan-2-yl]pyrimidin-4-amine]",–,–,–,–,–,–,–,–,–
< 20%,< 20%,20 to 49%,50 to 79%,< 20%,–,< 20%,"CN1CC2(CCN(c3nccc(Nc4cc(C5CCCC5)[nH]n4)n3)C2)C1 [Compound 85, N-(5-cyclopentyl-1H-pyrazol-3-yl)-2-(2-methyl-2,6-diazaspiro[3.4]octan-6-yl)pyrimidin-4-amine]",–,–,–,–,–,–,–,–,–
–,–,–,–,–,–,–,"O=C1c2ccccc2C(=O)N1CC12CC(CN(c3nccc(Nc4cc(C5CCCC5)[nH]n4)n3)C1)C2 [Compound 127, 2-[[3-[4-[(5-Cyclopentyl-1H-pyrazol-3-yl)amino]pyrimidin-2-yl]-3-azabicyclo[3.1.1]heptan-1-yl]methyl]isoindoline-1,3-dione]",50 to 79%,80 to 100%,80 to 100%,80 to 100%,< 20%,80 to 100%,80 to 100%,80 to 100%,–
20 to 49%,20 to 49%,50 to 79%,80 to 100%,–,< 20%,80 to 100%,"CN(C)[C@@H]1CCN(c2nccc(Nc3cc(C4CC4)[nH]n3)n2)C1 [Compound 17, N-(5-cyclopropyl-1H-pyrazol-3-yl)-2-[(3R)-3-(dimethylamino)pyrrolidin-1-yl]pyrimidin-4-amine]",–,–,–,–,–,–,–,–,–
20 to 49%,< 20%,20 to 49%,20 to 49%,–,< 20%,20 to 49%,"CNC[C@@H]1CCN(c2nccc(Nc3cc(C4CC4)[nH]n3)n2)C1 [Compound 21, N-(5-Cyclopropyl-1H-pyrazol-3-yl)-2-[(3S)-3-(methylaminomethyl)pyrrolidin-1-yl]pyrimidin-4-amine]",–,–,–,–,–,–,–,–,–
< 20%,–,< 20%,20 to 49%,–,20 to 49%,20 to 49%,"c1cc(Nc2cc(C3CC3)[nH]n2)nc(N2CC(C3CNC3)C2)n1 [Compound 64, 2-[3-(Azetidin-3-yl)azetidin-1-yl]-N-(5-cyclopropyl-1H-pyrazol-3-yl)pyrimidin-4-amine]",–,–,–,–,–,–,–,–,< 20%
–,–,< 20%,–,< 20%,20 to 49%,–,"CN[C@H]1CCN(c2nccc(Nc3cc(C4CC4)[nH]n3)n2)C1 [Compound 8, (S)—N-(5-cyclopropyl-1H-pyrazol-3-yl)-2-(3-(methylamino)pyrrolidin-1-yl)pyrimidin-4-amine]",–,–,–,–,–,–,–,–,< 20%
–,–,–,20 to 49%,20 to 49%,< 20%,20 to 49%,"CN1CC2(C1)CN(c1nccc(Nc3cc(C4CCCC4)[nH]n3)n1)C2 [Compound 84, N-(5-cyclopentyl-1H-pyrazol-3-yl)-2-(6-methyl-2,6-diazaspiro[3.3]heptan-2-yl)pyrimidin-4-amine]",–,–,–,–,–,–,–,–,20 to 49%
20 to 49%,20 to 49%,20 to 49%,50 to 79%,< 20%,< 20%,< 20%,"CN1CC(C2CCN(c3nccc(Nc4cc(C5CC5)[nH]n4)n3)C2)C1 (centres unmarked) [Compound 38, N-(5-Cyclopropyl-1H-pyrazol-3-yl)-2-[3-(1-methylazetidin-3-yl)pyrrolidin-1-yl]pyrimidin-4-amine]",–,–,–,–,–,–,–,–,< 20%

Structure (SMILES),"Dmax at 0.5 µM (MycN; SKNBE2 cells, 24 h, 0.5 μM)","Dmax at 1 µM (MycN; SKNBE2 cells, 24 h, 1 μM)","Dmax at 3 µM (MycN; SKNBE2 cells, 24 h, 3 μM)","Dmax at 6 µM (MycN; SKNBE2 cells, 24 h, 6 μM)","Dmax at 0.5 µM (MycC; L-363 cells, 24 h, 0.5 μM)","Dmax at 3 µM (MycC; L-363 cells, 24 h, 3 μM)","Dmax at 6 µM (MycC; L-363 cells, 24 h, 6 μM)",Dmax at 0.5 µM (MycN),Dmax at 1 µM (MycN),Dmax at 3 µM (MycN),Dmax at 6 µM (MycN),Dmax at 0.5 µM (MycC),Dmax at 1 µM (MycC),Dmax at 3 µM (MycC),Dmax at 6 µM (MycC),"Dmax at 1 µM (MycC; L-363 cells, 24 h, 1 μM)"
"CN1CC2(C1)CN(c1nccc(Nc3cc(C4CC4)[nH]n3)n1)C2 [Compound 4, N-(5-Cyclopropyl-1H-pyrazol-3-yl)-2-(6-methyl-2,6-diazaspiro[3.3]heptan-2-yl)pyrimidin-4-amine]",< 20%,20 to 49%,20 to 49%,20 to 49%,< 20%,80 to 100%,80 to 100%,–,–,–,–,–,–,–,–,20 to 49%
"CN1CCC2(C1)CN(c1nccc(Nc3cc(C4CC4)[nH]n3)n1)C2 [Compound 26, N-(5-cyclopropyl-1H-pyrazol-3-yl)-2-(7-methyl-2,7-diazaspiro[3.4]octan-2-yl)pyrimidin-4-amine]",20 to 49%,20 to 49%,20 to 49%,50 to 79%,20 to 49%,< 20%,–,–,–,–,–,–,–,–,–,20 to 49%
"c1cc(Nc2cc(C3CC3)[nH]n2)nc(N2CC3(CCNC3)C2)n1 [Compound 25, N-(5-cyclopropyl-1H-pyrazol-3-yl)-2-(2,7-diazaspiro[3.4]octan-2-yl)pyrimidin-4-amine]",20 to 49%,20 to 49%,20 to 49%,20 to 49%,< 20%,–,–,–,–,–,–,–,–,–,–,< 20%
"O=C1c2ccccc2C(=O)N1CC12CC(CN(c3nccc(Nc4cc(C5CC5)[nH]n4)n3)C1)C2 [Compound 126, 2-[[3-[4-[(5-Cyclopropyl-1H-pyrazol-3-yl)amino]pyrimidin-2-yl]-3-azabicyclo[3.1.1]heptan-1-yl]methyl]isoindoline-1,3-dione]",80 to 100%,80 to 100%,80 to 100%,80 to 100%,80 to 100%,80 to 100%,80 to 100%,–,–,–,–,–,–,–,–,80 to 100%
"c1cc(Nc2cc(C3CC3)[nH]n2)nc(N2C[C@H]3CN[C@H]3C2)n1 [Compound 53, N-(5-Cyclopropyl-1H-pyrazol-3-yl)-2-[(1R,5R)-3,6-diazabicyclo[3.2.0]heptan-3-yl]pyrimidin-4-amine]",–,–,–,< 20%,–,20 to 49%,< 20%,–,–,–,–,–,–,–,–,–
